The structures appear in SMILES notation.

Experiment [1] concerns the target T1, Full length DGKα (D21-10BG, SignalChem) (Homo sapiens, UniProt P23743).
T1 construct: Full length DGKα (D21-10BG, SignalChem); purchased SignalChem D21-10BG
Put plainly: Biochemical DGK IC50 assay (ADP-Glo, lipid micelle substrate), DGKα. The following applies: 1 hour preincubation, 1 hour reaction, room temperature. The method, boiled down: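 ADP-Glo luminescence quantified ADP produced after a 1 h room-temperature reaction of full-length DGKα on DAG/PS micelles, in HEPES buffer containing MgCl2, CaCl2, vanadate, BSA and Tween-20. IC50 values derive from activity inhibition over a compound concentration series.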

Experiment [2] addresses T2, Full length DGKζ (in-house protein M1-V929) (Homo sapiens, UniProt Q13574).
T2 construct: His (N); TEV site (N); made in house; host or cells: Sf9 insect cells (Bac-to-Bac baculovirus)
Put plainly: Biochemical DGK IC50 assay (ADP-Glo, lipid micelle substrate), DGKζ. The following applies: 1 hour preincubation, 1 hour reaction, room temperature. Put shortly:
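Enzyme: full-length human DGKζ M1-V929, produced in baculovirus-infected Sf9 cells; substrate DAG/PS micelles. Buffer 50 mM HEPES, 10 mM MgCl2, 0.01 mM CaCl2, 0.1 mM Na3VO4.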

T2 sequence (Q13574 1-929 isoform Q13574-4): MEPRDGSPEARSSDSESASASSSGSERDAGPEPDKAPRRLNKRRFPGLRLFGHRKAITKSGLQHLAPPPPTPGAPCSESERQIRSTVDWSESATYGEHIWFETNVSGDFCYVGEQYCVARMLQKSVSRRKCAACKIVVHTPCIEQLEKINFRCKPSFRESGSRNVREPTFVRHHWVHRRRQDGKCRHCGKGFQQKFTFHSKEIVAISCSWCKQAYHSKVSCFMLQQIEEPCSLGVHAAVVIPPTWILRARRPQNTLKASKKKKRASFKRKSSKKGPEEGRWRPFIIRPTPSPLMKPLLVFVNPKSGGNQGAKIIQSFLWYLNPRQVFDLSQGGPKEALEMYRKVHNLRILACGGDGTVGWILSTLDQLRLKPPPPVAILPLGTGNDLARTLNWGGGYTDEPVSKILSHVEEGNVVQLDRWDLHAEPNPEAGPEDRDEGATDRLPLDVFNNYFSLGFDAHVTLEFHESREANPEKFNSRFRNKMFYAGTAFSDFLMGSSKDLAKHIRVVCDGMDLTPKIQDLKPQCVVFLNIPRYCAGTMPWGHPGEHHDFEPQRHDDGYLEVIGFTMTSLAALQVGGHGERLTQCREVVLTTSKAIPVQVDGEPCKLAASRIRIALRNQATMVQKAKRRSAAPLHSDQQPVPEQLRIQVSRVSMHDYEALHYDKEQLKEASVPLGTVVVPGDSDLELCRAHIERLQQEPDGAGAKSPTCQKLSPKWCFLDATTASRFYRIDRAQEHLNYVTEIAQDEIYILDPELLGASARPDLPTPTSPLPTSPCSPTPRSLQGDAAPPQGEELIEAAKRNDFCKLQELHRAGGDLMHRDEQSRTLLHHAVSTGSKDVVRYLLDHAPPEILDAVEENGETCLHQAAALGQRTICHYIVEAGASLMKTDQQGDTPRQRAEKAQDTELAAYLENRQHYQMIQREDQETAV
T1 sequence (P23743 whole entry): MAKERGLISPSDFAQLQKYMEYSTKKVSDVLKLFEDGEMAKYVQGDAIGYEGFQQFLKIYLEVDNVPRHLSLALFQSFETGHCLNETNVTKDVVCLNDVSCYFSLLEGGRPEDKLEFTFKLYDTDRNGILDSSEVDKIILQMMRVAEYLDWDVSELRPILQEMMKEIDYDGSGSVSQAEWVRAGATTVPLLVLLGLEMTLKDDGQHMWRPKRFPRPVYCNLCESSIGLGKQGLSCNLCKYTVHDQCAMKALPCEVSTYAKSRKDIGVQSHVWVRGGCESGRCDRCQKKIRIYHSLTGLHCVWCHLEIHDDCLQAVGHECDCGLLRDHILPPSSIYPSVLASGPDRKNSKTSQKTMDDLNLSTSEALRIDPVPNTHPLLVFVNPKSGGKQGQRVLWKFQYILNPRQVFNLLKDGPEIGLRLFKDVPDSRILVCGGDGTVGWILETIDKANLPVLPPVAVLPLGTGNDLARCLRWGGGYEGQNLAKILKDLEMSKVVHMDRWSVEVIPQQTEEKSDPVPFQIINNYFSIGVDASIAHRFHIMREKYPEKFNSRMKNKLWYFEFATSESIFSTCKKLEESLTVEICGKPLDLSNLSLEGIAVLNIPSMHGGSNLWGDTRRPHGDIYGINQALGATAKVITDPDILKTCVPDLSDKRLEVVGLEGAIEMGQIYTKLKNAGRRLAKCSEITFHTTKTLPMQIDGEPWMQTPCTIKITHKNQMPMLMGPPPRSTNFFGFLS

With `CC(c1cc2c(cc1F)OCC(C)(C)O2)N1C[C@H](C)N(c2nc(=O)n(C)c3c2nc(CC#N)n3C)C[C@H]1C` (stereo partly drawn) [Compound A69, 2-(6-((2S,5R)-4-(1-(7-fluoro-3,3-dimethyl-2,3-dihydrobenzo[b][1,4]dioxin-6-yl)ethyl)-2,5-dimethylpiperazin-1-yl)-3,9-dimethyl-2-oxo-3,4,5,9-tetrahydro-2H-purin-8-yl)acetonitrile], the IC50 in experiment [1] was 3070 nM; in experiment [2], 6 nM.

`COc1cc(F)ccc1C(C)N1C[C@H](C)N(c2cc(=O)n(C)c3c2nc(CC#N)n3C)C[C@H]1C` (single isomer, unassigned) [Compound A4b]: the IC50 is > 10000 nM in experiment [1] and 64 nM in experiment [2].

Turning to `CCn1c(CC#N)nc2c(N3C[C@@H](C)N(C(C)c4ccc5c(c4)OC(C)(C)CO5)C[C@@H]3C)nc(=O)n(CC)c21` (stereo partly drawn) [Compound A62, 2-(6-((2S,5R)-4-(1-(3,3-dimethyl-2,3-dihydrobenzo[b][1,4]dioxin-6-yl)ethyl)-2,5-dimethylpiperazin-1-yl)-3,9-diethyl-2-oxo-3,9-dihydro-2H-purin-8-yl)acetonitrile], the 50% inhibitory concentration (IC50) is > 150000 nM in experiment [1] and 279 nM in experiment [2].

On to `CCn1c(CC#N)nc2c(N3C[C@@H](C)N(C(C)c4ccnc(NC(C)C)c4)C[C@@H]3C)nc(=O)n(C)c21` (stereo partly drawn) [Compound A122, 2-(9-ethyl-6-((2S,5R)-4-(1-(2-(isopropylamino)pyridin-4-yl)ethyl)-2,5-dimethylpiperazin-1-yl)-3-methyl-2-oxo-3,9-dihydro-2H-purin-8-yl)acetonitrile], for which the half-inhibitory concentration (IC50) was > 150000 nM in experiment [1] and 834 nM in experiment [2].

For the compound `CC(c1ccc2c(c1)OC(C)(C)CO2)N1C[C@H](C)N(c2nc(=O)n(C)c3c2nc(CC#N)n3C2CC2)C[C@H]1C` (stereo partly drawn) [Compound A86, 2-(9-cyclopropyl-6-((2S,5R)-4-(1-(3,3-dimethyl-2,3-dihydrobenzo[b][1,4]dioxin-6-yl)ethyl)-2,5-dimethylpiperazin-1-yl)-3-methyl-2-oxo-3,9-dihydro-2H-purin-8-yl)acetonitrile], the IC50 is > 150000 nM in experiment [1] and 67 nM in experiment [2].

Turning to `CCn1c(CC#N)nc2c(N3C[C@@H](C)N(C(=O)c4ccc5c(n4)C(C)(C)CO5)C[C@@H]3C)nc(=O)n(C)c21` [Compound A182, 2-(6-((2S,5R)-4-(3,3-dimethyl-2,3-dihydrofuro[3,2-b]pyridine-5-carbonyl)-2,5-dimethylpiperazin-1-yl)-9-ethyl-3-methyl-2-oxo-3,9-dihydro-2H-purin-8-yl)acetonitrile], the IC50 in experiment [1] was > 150000 nM; in experiment [2], 499 nM.

With `CCn1c(CC#N)nc2c(N3C[C@@H](C)N(C(C)c4ccc5c(c4)OC4(CCC4)O5)C[C@@H]3C)nc(=O)n(C)c21` (single isomer, unassigned) [Compound A169a], the IC50 in experiment [1] is 31700 nM; in experiment [2] it was 10 nM.

For the compound `COc1cc(F)ccc1C(C)N1C[C@H](C)N(c2nc(=O)n(C)c3c2nc(CC#N)n3C)C[C@H]1C` (single isomer, unassigned) [Compound A24b], the IC50 came to 131000 nM in experiment [1] and 42 nM in experiment [2].

With `CCn1c(CC#N)nc2c(N3C[C@@H](C)N(C(C)c4cccc(C)c4)C[C@@H]3C)nc(=O)n(C)c21` (stereo partly drawn) [Compound A45, 2-(6-((2S,5R)-2,5-dimethyl-4-(1-(m-tolyl)ethyl)piperazin-1-yl)-9-ethyl-3-methyl-2-oxo-3,9-dihydro-2H-purin-8-yl)acetonitrile], the IC50 in experiment [1] is 79300 nM; in experiment [2] it was 410 nM.

For the origin of these results see patent US20260125378A2, “Heterocyclic Compounds” (BeOne Medicines I GmbH, priority 2023, published 2026).
